# PubChem BioAssay (NCI)
#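 Assay format: 96-well plates, 48-hour exposure. Here, GI50 denotes the concentration required for 50% inhibition of growth. At the TGI there is no net growth.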
# How the values were obtained:
# Experiment in all cases: inhibition of tumour cell growth, NCI panel, 48 h
# TK-10 renal = test system: TK-10 renal
# IGROV1 ovarian = test system: IGROV1 ovarian
# 786-0 renal = test system: 786-0 renal
# BT-549 breast = test system: BT-549 breast
# NCI-H226 lung = test system: NCI-H226 lung
# RPMI-8226 leukemia = test system: RPMI-8226 leukemia
# CCRF-CEM leukemia = test system: CCRF-CEM leukemia
# KM12 colon = test system: KM12 colon
# SNB-19 CNS = test system: SNB-19 CNS
# UACC-257 melanoma = test system: UACC-257 melanoma
# HT29 colon = test system: HT29 colon
# NCI-H522 lung = test system: NCI-H522 lung
# MALME-3M melanoma = test system: MALME-3M melanoma
# SK-MEL-28 melanoma = test system: SK-MEL-28 melanoma
# SK-MEL-2 melanoma = test system: SK-MEL-2 melanoma
# COLO 205 colon = test system: COLO 205 colon
# NCI/ADR-RES ovarian = test system: NCI/ADR-RES ovarian
# MDA-MB-231 breast = test system: MDA-MB-231 breast
# MCF7 breast = test system: MCF7 breast
# T-47D breast = test system: T-47D breast
# HCT-116 colon = test system: HCT-116 colon
# SNB-75 CNS = test system: SNB-75 CNS
# A498 renal = test system: A498 renal
# HS 578T breast = test system: HS 578T breast
# M14 melanoma = test system: M14 melanoma
# HOP-62 NSCLC = test system: HOP-62 NSCLC
# UO-31 renal = test system: UO-31 renal
# HCC-2998 colon = test system: HCC-2998 colon
smiles,measurement,setting,value
CCc1cccc2c3c(sc12)C(c1ccc(F)cc1)C(C#N)=C(/N=C/c1ccc(Cl)cc1)O3 (stereo unspecified),GI50,TK-10 renal,6800 nM
same,TGI,TK-10 renal,> 100000 nM
same,GI50,IGROV1 ovarian,498 nM
same,TGI,IGROV1 ovarian,> 100000 nM
same,GI50,786-0 renal,661 nM
same,TGI,786-0 renal,> 100000 nM
same,GI50,BT-549 breast,2050 nM
same,TGI,BT-549 breast,7840 nM
same,GI50,NCI-H226 lung,379 nM
same,TGI,NCI-H226 lung,45900 nM
same,GI50,RPMI-8226 leukemia,387 nM
same,TGI,RPMI-8226 leukemia,> 100000 nM
same,GI50,CCRF-CEM leukemia,324 nM
same,TGI,CCRF-CEM leukemia,44200 nM
same,GI50,KM12 colon,701 nM
same,TGI,KM12 colon,> 100000 nM
same,GI50,SNB-19 CNS,988 nM
same,TGI,SNB-19 CNS,> 100000 nM
same,GI50,UACC-257 melanoma,43400 nM
same,TGI,UACC-257 melanoma,> 100000 nM
same,GI50,HT29 colon,323 nM
same,TGI,HT29 colon,36500 nM
same,GI50,NCI-H522 lung,66 nM
same,TGI,NCI-H522 lung,381 nM
same,GI50,MALME-3M melanoma,384 nM
same,TGI,MALME-3M melanoma,> 100000 nM
same,GI50,SK-MEL-28 melanoma,492 nM
same,TGI,SK-MEL-28 melanoma,> 100000 nM
same,GI50,SK-MEL-2 melanoma,325 nM
same,TGI,SK-MEL-2 melanoma,78000 nM
same,GI50,COLO 205 colon,373 nM
same,TGI,COLO 205 colon,2950 nM
same,GI50,NCI/ADR-RES ovarian,192 nM
same,TGI,NCI/ADR-RES ovarian,683 nM
same,GI50,MDA-MB-231 breast,364 nM
same,TGI,MDA-MB-231 breast,> 100000 nM
same,GI50,MCF7 breast,392 nM
same,TGI,MCF7 breast,> 100000 nM
same,GI50,T-47D breast,450 nM
same,TGI,T-47D breast,> 100000 nM
same,GI50,HCT-116 colon,383 nM
same,TGI,HCT-116 colon,> 100000 nM
same,GI50,SNB-75 CNS,376 nM
same,TGI,SNB-75 CNS,79800 nM
same,GI50,A498 renal,> 100000 nM
same,TGI,A498 renal,> 100000 nM
same,GI50,HS 578T breast,255 nM
same,TGI,HS 578T breast,80200 nM
same,GI50,M14 melanoma,335 nM
same,TGI,M14 melanoma,> 100000 nM
same,GI50,HOP-62 NSCLC,312 nM
same,TGI,HOP-62 NSCLC,> 100000 nM
same,GI50,UO-31 renal,553 nM
same,TGI,UO-31 renal,> 100000 nM
same,GI50,HCC-2998 colon,1140 nM
same,TGI,HCC-2998 colon,> 100000 nM
